What was measured:
Format in all cases: cell-based
[1] = tested on: HCT116 (human colon cancer cell); test: MTT in vitro cytotoxicity, HCT116; settings: HCT-116, 72 hr incubation
Experimental: (§1) Materials and methods: MTT (3-[4,5-dimethylthiazol-2-yl]-diphenyl tetrazolium bromide) method was employed to determine the antiproliferative activity of all the compounds of the Examples and Contrasting Examples in vitro against selected cell lines, including HCT116 (human colon cancer cell), PC-3 (human prostate cancer), HepG2 (human hepatocellular carcinoma), SK-OV-3 (human ovarian adenocarcinoma), MCF-7 (human breast cancer), U87MG (human glioblastoma cell) cell lines.
(§2) Procedure: Human tumor cells of HCT116, PC-3, HepG2, SK-OV-3, MCF-7, and U87MG were in vitro cultured, and collected until the cells grow to the logarithmic phase. The cells were centrifuged for 5 minutes at 1000 rpm, and supernatant was discarded. Subsequently appropriate culture medium was added to suspend the precipitation, and the concentration of cells was adjusted to 3.5˜5.5×10^4/mL. the suspensions of cells were seeded in 96-well microplate at 100 μL per well, and incubated in incubator (37° C., 5% CO2) for 24 hr. The compound to test was added. For the control group, equivalent concentration of DMSO (final concentration 0.5%) was added. For each group, three copy wells were set. After incubated for 72 hr, 20 μL 5 mg/mL of MTT was added into each well, and placed at 37° C. for 3 hr. 150 μL of DMSO was added into each wells, and vibrated the shaker at 37° C. for 5 mins, then measured the absorbance (OD) value at 492 nm/620 nm. The IC50 values were calculated using Prism 5.0 software.

[2] = tested on: PC-3 (human prostate cancer); test: MTT in vitro cytotoxicity, PC-3; settings: 72 hr incubation, read-out: IC50 PC3
Experimental: as §1, §2

[3] = tested on: U87MG (human glioblastoma cell); test: MTT in vitro cytotoxicity, U87MG; settings: U-87 MG, 72 hr incubation
Experimental: as §1, §2

[4] = tested on: HepG2 (human hepatocellular carcinoma); test: MTT in vitro cytotoxicity, HepG2; settings: 72 hr incubation
Experimental: as §1, §2

Cc1ccc2nc3cccc4c3c(c2c1)C(=O)N4CCCN(C)C [Compound 3a, 2-(3-(dimethylamino)propyl)-9-methylpyrrolo[2,3,4-kl]acridin-1-(2H)-one]
IC50 [1]: 1.38 µM
IC50 [2]: 8.21 µM
IC50 [3]: 2.19 µM
IC50 [4]: 2.85 µM

O=C1c2c3cc(Cl)ccc3nc3cccc(c23)N1CCN1CCCCC1 [Compound 4b, 9-chloro-2-(2-(piperidin-1-yl)ethyl)pyrrolo[2,3,4-kl]acridin-1-(2H)-one]
IC50 [1]: 1.38 µM
IC50 [2]: 2.88 µM
IC50 [3]: 1.89 µM
IC50 [4]: 2.25 µM

COc1ccc2nc3cccc4c3c(c2c1)C(=O)N4CCCN(C)C [Compound 3c, 2-(3-(dimethylamino)propyl)-9-methoxypyrrolo[2,3,4-kl]acridin-1-(2H)-one]
IC50 [1]: 1.11 µM
IC50 [2]: 3.47 µM
IC50 [3]: 1.85 µM
IC50 [4]: 1.83 µM

Cc1ccc2nc3cccc4c3c(c2c1)C(=O)N4CCN(C)C [Compound 2a, 2-(2-(dimethylamino)ethyl)-9-methylpyrrolo[2,3,4-kl]acridin-1-(2H)-one]
IC50 [1]: 1.05 µM
IC50 [2]: 3.52 µM
IC50 [3]: 2.05 µM
IC50 [4]: 2.83 µM

CN(C)CCCN1C(=O)c2c3cccc(F)c3nc3cccc1c23 [Compound 3d, 2-(3-(dimethylamino)propyl)-7-fluoropyrrolo[2,3,4-kl]acridin-1-(2H)-one]
IC50 [1]: 1.49 µM
IC50 [2]: 4.99 µM
IC50 [3]: 2.36 µM
IC50 [4]: 2.1 µM

CN(C)CCCN1C(=O)c2c3cc(Cl)ccc3nc3cccc1c23 [Compound 3b, 9-chloro-2-(3-(dimethylamino)propyl)pyrrolo[2,3,4-kl]acridin-1-(2H)-one]
IC50 [1]: 1.32 µM
IC50 [2]: 2.33 µM
IC50 [3]: 1.58 µM
IC50 [4]: 1.47 µM

O=C1c2c3cccc(F)c3nc3cccc(c23)N1CCN1CCCCC1 [Compound 4d, 7-fluoro-2-(2-(piperidin-1-yl)ethyl)pyrrolo[2,3,4-kl]acridin-1-(2H)-one]
IC50 [1]: 1.21 µM
IC50 [2]: 4.7 µM
IC50 [3]: 1.78 µM
IC50 [4]: 3.58 µM

COc1ccc2nc3cccc4c3c(c2c1)C(=O)N4CCN1CCCCC1 [Compound 4c, 9-methoxy-2-(2-(piperidin-1-yl)ethyl)pyrrolo[2,3,4-kl]acridin-1-(2H)-one]
IC50 [1]: 0.284 µM
IC50 [2]: 1.4 µM
IC50 [3]: 0.497 µM
IC50 [4]: 1.5 µM

CN(C)CCN1C(=O)c2c3ccccc3nc3c([N+](=O)[O-])ccc1c23 [Compound 2e]
IC50 [1]: 1.34 µM
IC50 [2]: 0.998 µM
IC50 [3]: 1.74 µM
IC50 [4]: 1.86 µM

COc1ccc2nc3c(C)ccc4c3c(c2c1)C(=O)N4CCN(C)C [Compound 5c, 2-(2-(dimethylamino)ethyl)-9-methoxy-5-methylpyrrolo[2,3,4-kl]-acridin-1-(2H)-one]
IC50 [1]: 0.165 µM
IC50 [2]: 0.689 µM
IC50 [3]: 0.269 µM
IC50 [4]: 0.232 µM

Cc1ccc2nc3cccc4c3c(c2c1)C(=O)N4CCN1CCCCC1 [Compound 4a, 9-methyl-2-(2-(piperidin-1-yl)ethyl)pyrrolo[2,3,4-kl]acridin-1-(2H)-one]
IC50 [1]: 1.42 µM
IC50 [2]: 4.13 µM
IC50 [3]: 1.33 µM
IC50 [4]: 2.57 µM
